Measurements taken from patent US7906522B2, “2-aminoquinazoline derivatives” (Kyowa Hakko Kirin Co., Ltd, priority 2005, dated 2011).

Target: T1, Activated human p38α (Homo sapiens, UniProt Q16539)
T1 construct: purchased Upstate Biotechnology Inc. 14-251
Experiment: p38MAP kinase inhibition test
Assay type: biochemical
Conditions: at a concentration of 1 μmol/L; substrate myelin basic protein, ATP 20 μmol/L, [γ-32P]ATP; read-out: enzyme inhibitory activity
Procedure, shortened: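 Radiometric kinase assay with myelin basic protein (20 μg/assay) as substrate, 20 μmol/L ATP plus [γ-32P]ATP, MOPS pH 7.2 with MgCl2 18.75 mmol/L. Reaction run 15 min at 30° C., stopped with phosphoric acid; 32P-MBP captured on phosphocellulose and counted by scintillation.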

T1 sequence (Q16539 whole entry): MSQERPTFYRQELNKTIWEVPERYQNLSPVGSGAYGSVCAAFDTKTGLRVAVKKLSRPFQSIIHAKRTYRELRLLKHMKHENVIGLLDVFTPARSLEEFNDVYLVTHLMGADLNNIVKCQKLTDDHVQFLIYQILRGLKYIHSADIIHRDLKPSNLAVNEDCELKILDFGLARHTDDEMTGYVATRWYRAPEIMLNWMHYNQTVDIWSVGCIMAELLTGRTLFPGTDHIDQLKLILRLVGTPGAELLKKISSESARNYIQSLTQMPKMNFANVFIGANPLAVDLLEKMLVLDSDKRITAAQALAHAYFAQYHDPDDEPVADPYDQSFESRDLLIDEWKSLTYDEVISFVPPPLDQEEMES

Inhibition at 1 µM, ≥ 50%:
O=C(c1ccccc1)c1cc2cnc(Nc3c(Cl)cccc3Cl)nc2cc1O [Compound 141, 6-Benzoyl-2-(2,6-dichloroanilino)-7-hydroxyquinazoline]
COc1cc2nc(NC(C)C)ncc2cc1-c1cccc(NC(=O)Nc2ccccc2)c1 [Compound 210, 2-Isopropylamino-7-methoxy-6-[3-(3-phenylureido)phenyl]quinazoline]
CCOC(=O)COc1cc2nc(NC(C)C)ncc2cc1-c1ccccc1Cl [Compound 32, 6-(2-Chlorophenyl)-7-(ethoxycarbonylmethyloxy)-2-isopropylaminoquinazoline]
CC(C)Nc1ncc2cc(-c3ccccc3Cl)c(OCC#N)cc2n1 [Compound 21, 6-(2-Chlorophenyl)-7-cyanomethyloxy-2-isopropylaminoquinazoline]
CC(C)Nc1ncc2cc(-c3ccccc3Cl)c(OCCCCO)cc2n1 [Compound 25, 6-(2-Chlorophenyl)-7-(4-hydroxybutyloxy)-2-isopropylaminoquinazoline]
CC(C)Nc1ncc2cc(-c3ccccc3Cl)c(O)c(-c3ccc(CC(=O)O)cc3)c2n1 [Compound 95, 8-[4-(Carboxymethyl)phenyl]-6-(2-chlorophenyl)-7-hydroxy-2-(isopropylamino)quinazoline]
COc1c(-c2ccccc2Cl)cc2cnc(NC(C)C)nc2c1C(=O)N(C)OC [Compound 71, 6-(2-Chlorophenyl)-2-isopropylamino-7-methoxy-8-(N-methoxy-N-methylaminocarbonyl)quinazoline]
CC(C)Nc1ncc2cc(-c3cccc(NC(=O)C(C)(C)C)c3)c(O)cc2n1 [Compound 298, 6-[3-(tert-Butylcarbonylamino)phenyl]-7-hydroxy-2-(isopropylamino)quinazoline]
COc1cc2nc(NC(C)C)ncc2cc1-c1cccc(O)c1 [Compound 196, 6-(3-Hydroxyphenyl)-2-isopropylamino-7-methoxyquinazoline]
COc1cc2nc(NC(C)C)ncc2cc1-c1ccc(O)cc1 [Compound 47, 6-(4-Hydroxyphenyl)-2-isopropylamino-7-methoxyquinazoline]
CC(C)Nc1ncc2cc(-c3cccc(O)c3)c(O)cc2n1 [Compound 244, 7-Hydroxy-6-(3-hydroxyphenyl)-2-(isopropylamino)quinazoline]
COc1cc2nc(NC(C)C)ncc2cc1-c1ccccc1C#N [Compound 183, 6-(2-Cyanophenyl)-2-isopropylamino-7-methoxyquinazoline]
Cc1ccc(NC(=O)C2CC2)cc1-c1ccc2nc(NC(C)C)ncc2c1 [Compound 264, 6-(5-Cyclopropylcarbonylamino-2-methylphenyl)-2-(isopropylamino)quinazoline]
Cc1ccccc1C(=O)c1cc2cnc(NC(C)C)nc2cc1O [Compound 119, 7-Hydroxy-2-isopropylamino-6-(2-methylbenzoyl)quinazoline]
COc1cc2nc(NC(C)C)ncc2cc1-c1cc(NC(C)=O)ccc1F [Compound 233, 6-(5-Acetylamino-2-fluorophenyl)-2-isopropylamino-7-methoxyquinazoline]
Cc1ccc(C(=O)NC2CC2)cc1-c1ccc2nc(NC(C)C)ncc2c1 [Compound 268, 6-(5-Cyclopropylcarbamoyl-2-methylphenyl)-2-(isopropylamino)quinazoline]
CC(C)Nc1ncc2cc(-c3ccccc3Cl)c(OCC(=O)N(C)C)cc2n1 [Compound 37, 6-(2-Chlorophenyl)-7-(N,N-dimethylcarbamoylmethyloxy)-2-isopropylaminoquinazoline]
CC(=O)Nc1ccc(C)c(-c2cc3cnc(NC(C)C)nc3cc2O)c1 [Compound 289, 6-(5-Acetylamino-2-methylphenyl)-7-hydroxy-2-(isopropylamino)quinazoline]
COc1cc2nc(NC(C)C)ncc2cc1-c1ccccc1Cl [Compound 4, 6-(2-Chlorophenyl)-2-isopropylamino-7-methoxyquinazoline]
CC(C)Nc1ncc2cc(-c3cccc([N+](=O)[O-])c3)c(OCc3ccccc3)cc2n1 [Compound 282, 7-Benzyloxy-2-isopropylamino-6-(3-nitrophenyl)quinazoline]
CC(C)Nc1ncc2cc(C(=O)c3ccccc3Cl)c(O)cc2n1 [Compound 125, 6-(2-Chlorobenzoyl)-7-hydroxy-2-(isopropylamino)quinazoline]
CC(C)Nc1ncc2cc(-c3cccc(NC(=O)C4CC4)c3)c(O)cc2n1 [Compound 296, 6-[3-(Cyclopropylcarbonylamino)phenyl]-7-hydroxy-2-(isopropylamino)quinazoline]
CCOC(=O)COc1c(-c2ccccc2Cl)cc2cnc(NC(C)C)nc2c1C(C)=O [Compound 79, 8-Acetyl-6-(2-chlorophenyl)-7-(ethoxycarbonylmethyloxy)-2-(isopropylamino)quinazoline]
CCOC(=O)c1oc2c(-c3ccccc3Cl)cc3cnc(NC(C)C)nc3c2c1C [Compound 111, 6-(2-Chlorophenyl)-8-ethoxycarbonyl-2-isopropylamino-9-methylfuro[2,3-h]quinazoline]
CC(C)Nc1ncc2cc(-c3ccccc3Cl)c(OCC(N)=O)cc2n1 [Compound 35, 7-(Carbamoylmethyloxy)-6-(2-chlorophenyl)-2-isopropylaminoquinazoline]
COc1cc2nc(NC(C)(C)C)ncc2cc1-c1ccccc1C [Compound 167, 2-(tert-Butylamino)-7-methoxy-6-(2-methylphenyl)quinazoline]
N[C@H]1CC[C@H](Nc2ncc3cc(C(=O)c4ccccc4)c(O)cc3n2)CC1 [Compound 139, 2-(trans-4-Aminocyclohexylamino)-6-benzoyl-7-hydroxyquinazoline]
COc1cc2nc(NC(C)C)ncc2cc1-c1cccc(NC(=O)c2ccncc2)c1 [Compound 215, 2-Isopropylamino-7-methoxy-6-{3-[(4-pyridyl)carbonylamino]phenyl}quinazoline]
CC(C)CNc1ncc2cc(-c3ccccc3Cl)c(O)cc2n1 [Compound 160, 6-(2-Chlorophenyl)-7-hydroxy-2-isobutylaminoquinazoline]
Cc1cccc(C)c1Nc1ncc2cc(C(=O)c3ccccc3)c(O)cc2n1 [Compound 140, 6-Benzoyl-2-(2,6-dimethylanilino)-7-hydroxyquinazoline]
CON=Cc1ccccc1-c1cc2cnc(NC(C)C)nc2cc1OC [Compound 59, 2-Isopropylamino-7-methoxy-6-[2-(methoxyimino)phenyl]quinazoline]
COc1cc2nc(N[C@H]3CC[C@H](O)CC3)ncc2cc1-c1ccccc1Cl [Compound 10, 6-(2-Chlorophenyl)-2-(trans-4-hydroxycyclohexylamino)-7-methoxyquinazoline]
COc1cc2nc(NC(C)C)ncc2cc1-c1cccc(N)c1 [Compound 50, 6-(3-Aminophenyl)-2-isopropylamino-7-methoxyquinazoline]
Cc1ccccc1-c1cc2cnc(NC(C)C)nc2cc1O [Compound 245, 7-Hydroxy-2-isopropylamino-6-(2-methylphenyl)quinazoline]
COCOc1c(-c2ccccc2Cl)cc2cnc(NC(C)C)nc2c1-c1ccccc1F [Compound 99, 6-(2-Chlorophenyl)-8-(2-fluorophenyl)-2-isopropylamino-7-(methoxymethyloxy)quinazoline]
COc1ccccc1C(=O)c1cc2cnc(NC(C)C)nc2cc1O [Compound 122, 7-Hydroxy-2-isopropylamino-6-(2-methoxybenzoyl)quinazoline]
C=Cc1c(OC)c(-c2ccccc2Cl)cc2cnc(NC(C)C)nc12 [Compound 76, 6-(2-Chlorophenyl)-2-isopropylamino-7-methoxy-8-vinylquinazoline]
COc1cc2nc(NC(C)C)ncc2cc1-c1cccc(NC(=O)c2ccc(OC(F)(F)F)cc2)c1 [Compound 214, 2-Isopropylamino-7-methoxy-6-{3-[(4-trifluoromethoxyphenyl)carbonylamino]phenyl}quinazoline]
Cc1ccccc1-c1cc2cnc(Nc3c(Cl)cc([N+](=O)[O-])cc3Cl)nc2cc1O [Compound 179, 2-(2,6-Dichloro-4-nitroanilino)-7-hydroxy-6-(2-methylphenyl)quinazoline]
CC[C@@H](C)Nc1ncc2cc(-c3ccccc3C)c(OC)cc2n1 [Compound 166, (R)-2-(sec-Butylamino)-7-methoxy-6-(2-methylphenyl)quinazoline]
COc1cc2nc(NC(C)C)ncc2cc1-c1cccc(NC(=O)C2CCC2)c1 [Compound 222, 6-[3-(Cyclobutylcarbonylamino)phenyl]-2-isopropylamino-7-methoxyquinazoline]
